Legend:
white blood cells (WBCs) = assay: On-bench capture test of WBCs using octasaccharide-coated beads; assay type: cell-based; conditions: WBCs versus CCA cells (Huh28)
Experimental: In order to determine whether SCH-45 and SCH-46 can be promising tools for use in clinical examination at an early stage or on the prognostic tracking of cancer, such as blood test, an on-bench capture test of WBCs using SCH-45 and SCH-46 of 100 μM-coated beads was performed in this example.
The whole blood used in this example was provided by National Cheng Kung University Hospital and stored at 4° C. (IRB number: A-ER-103-063 and A-ER-105-109). In order to achieve good efficiency in cancer cell capturing using octasaccharide-coated beads with the blood sample, whole blood was pretreated to remove blood cells, including red blood cells (RBCs) and white blood cells (WBCs). In other words, the whole blood pretreatment process contained a RBC lysis step and a WBC depletion step. […] Whole blood was inoculated with 10^5 Huh28 cells in a 1.5 mL Eppendorf tube. Then, on-bench RBC lysis was performed using a commercial RBC lysis buffer (Cat. 420301, BioLegend®, USA) diluted to 1× working concentration with DI water. The 100 μL of spiked sample was incubated with 1×RBC lysis buffer at a 1:10 volume/volume ratio on a wheeling rotor at 25 rpm, C2 mode for 5 mins, and then centrifuged at 1200 rpm for 5 mins to discard the supernatant. The pellets were washed twice and resuspended in 100 μL of 1× phosphate buffered saline (PBS) buffer. […]

Huh28 (CCA cell line) = assay: Capture test of cell lines by octasaccharide-coated magnetic beads (traditional shaker); assay type: cell-based, human; conditions: 30 mins
Description: The cell lines utilized in this example were SNU478, HuCCT1, Huh28, KKU100, MMNK1, BxPC3, HepG2 and HCT8, SNU478, HuCCT1, Huh28, KKU100, and MMNK1 were supplied by Division of Surgery, National Cheng Kung University Hospital, Taiwan. BxPC3 and HepG2 were supplied by Dr. Kuang Hung Cheng, Institute of Biomedical Science, National Sun Yat-sen University, Taiwan. HCT8 was supplied by Professor Hwan-You Chang, Institute of Life Science, National Tsing Hua University, Taiwan. SNU478, HuCCT1, Huh28 and KKU100 were used as target cells for positive selection, which are CCA cell lines respectively derived from the ampulla of Vater, the intrahepatic-metastasized ascites, the intrahepatic bile duct and the opisthorchis viverrini-related hilar bile duct. For negative selection, MMNK1 (immortalized biliary epithelial), and various types of cancer cell lines, including BxPC3 (pancreatic cancer), HepG2 (liver cancer) and HCT8 (colorectal cancer) were used. […]
In this example, the capture test for the eight cell lines mentioned above was performed with ten octasaccharides to determine their affinity. […] After the incubation, they were washed twice and the amount of captured cells was calculated by a hemocytometer under an inverted microscope. […]

HuCCT1 (CCA cell line) = assay: as above; assay type: cell-based; conditions: 30 mins
Description: (§1) The cell lines utilized in this example were SNU478, HuCCT1, Huh28, KKU100, MMNK1, BxPC3, HepG2 and HCT8, SNU478, HuCCT1, Huh28, KKU100, and MMNK1 were supplied by Division of Surgery, National Cheng Kung University Hospital, Taiwan. BxPC3 and HepG2 were supplied by Dr. Kuang Hung Cheng, Institute of Biomedical Science, National Sun Yat-sen University, Taiwan. HCT8 was supplied by Professor Hwan-You Chang, Institute of Life Science, National Tsing Hua University, Taiwan. SNU478, HuCCT1, Huh28 and KKU100 were used as target cells for positive selection, which are CCA cell lines respectively derived from the ampulla of Vater, the intrahepatic-metastasized ascites, the intrahepatic bile duct and the opisthorchis viverrini-related hilar bile duct. For negative selection, MMNK1 (immortalized biliary epithelial), and various types of cancer cell lines, including BxPC3 (pancreatic cancer), HepG2 (liver cancer) and HCT8 (colorectal cancer) were used. Among these cell lines, SNU478, HuCCT1, Huh28, BxPC3 and HCT8 were identically cultured in Roswell Park Memorial Institute 1640 (RPMI 1640, Gibco®, Thermo Fisher Scientific, USA) containing 100 U/mL penicillin and 100 μg/mL streptomycin (Pen Strep, Gibco®, Thermo Fisher Scientific, USA), 10% fetal bovine serum (FBS, Gibco®, Thermo Fisher Scientific, USA). The growth medium for KKU100, MMNK-1 and HepG2 was Dulbecco's modified eagle medium (DMEM, Gibco®, Thermo Fisher Scientific, USA) complemented with the additives described above. All cells were cultured in a humidified incubator at 37° C. under an atmosphere containing 5% CO2.
(§2) In this example, the cells were captured by magnetic beads. The surface of magnetic beads was coated, respectively, with three concentrations of ten kinds of heparan sulfate (HS) octasaccharides, that is, from SCH-43 to SCH-52. The magnetic beads used in this example were Dynabeads® MyOne™ Streptavidin T1 (˜7-10×10^9 beads/mL, Ø=1 μm, Invitrogen, Thermo Fisher Scientific, USA). Briefly, each octasaccharide of 1 μM, 10 μM and 100 μM concentration were first incubated with magnetic beads in a volume/volume ratio of 1:10, and placed on the wheeling rotator (RM-2L INTELLI-mixer, ELMI Ltd., Latvia) at 25 rpm, C2 mode for 30 mins at room temperature. The beads were then collected using a magnetic particle concentrator (MPC, Dynabeads® MPC®-1, Life Technologies) for 2 mins, followed by discarding the supernatant and washing the coated beads three times with 1 mL of deionized (DI) water. Finally, the coated beads were suspended in the same volume of DI water as the initial volume of Dynabeads®.
(§3) In this example, the capture test for the eight cell lines mentioned above was performed with ten octasaccharides to determine their affinity. Therefore, by using the traditional shaker, 2×10^5 cells were incubated with three kinds of concentration (1 μM, 10 μM and 100 μM) of each octasaccharide for 30 mins. After the incubation, they were washed twice and the amount of captured cells was calculated by a hemocytometer under an inverted microscope. Through statistical analysis by ANOVA, the octasaccharides which bound to one cell line with high specificity was compared to other cell lines.

KKU100 (CCA cell line) = assay: as above; assay type: cell-based; conditions: 30 mins
Description: as §1, §2, §3

[1] = system: MMNK1 (immortalized biliary epithelial); assay: as above; assay type: cell-based; conditions: 30 mins
Description: as §1, §2, §3

HCT8 (colorectal cancer) = assay: as above; assay type: cell-based; conditions: 30 mins
Description: as §1, §2, §3

HepG2 (liver cancer) = assay: as above; assay type: cell-based; conditions: 30 mins
Description: as §1, §2, §3

SNU478 (CCA cell line) = assay: as above; assay type: cell-based; conditions: 30 mins
Description: as §1, §2, §3

[2] = system: BxPC3 (pancreatic cancer); assay: as above; assay type: cell-based; conditions: 30 mins
Description: as §1, §2, §3

[3] = beads coated with 1 μM octasaccharide
[4] = beads coated with 10 μM octasaccharide
[5] = beads coated with 100 μM octasaccharide

O=C(CCCC[C@@H]1SC[C@@H]2NC(=O)N[C@@H]21)NCCCOCCOCCOCCOCCOCCOCCC(=O)NCCCCCO[C@@H]1O[C@H](C(=O)O)[C@@H](O[C@H]2O[C@H](COS(=O)(=O)O)[C@@H](O[C@@H]3O[C@@H](C(=O)O)[C@@H](O[C@H]4O[C@H](COS(=O)(=O)O)[C@@H](O[C@@H]5O[C@H](C(=O)O)[C@@H](O[C@H]6O[C@H](COS(=O)(=O)O)[C@@H](O[C@@H]7O[C@@H](C(=O)O)[C@@H](O[C@H]8O[C@H](COS(=O)(=O)O)[C@@H](O)[C@H](O)[C@H]8NS(=O)(=O)O)[C@H](O)[C@H]7OS(=O)(=O)O)[C@H](O)[C@H]6NS(=O)(=O)O)[C@H](O)[C@H]5OS(=O)(=O)O)[C@H](O)[C@H]4NS(=O)(=O)O)[C@H](O)[C@H]3OS(=O)(=O)O)[C@H](O)[C@H]2NS(=O)(=O)O)[C@H](O)[C@H]1OS(=O)(=O)O [SCH-45] was tested, and the “ratio of WBC capture rate to CCA” value (white blood cells (WBCs)) was 5×10^−5, the capture rate (Huh28 (CCA cell line); [3]) was 66 ± 6% and the capture rate (Huh28 (CCA cell line); [4]) was 67 ± 3%. The capture rate (HuCCT1 (CCA cell line); [3]) was 5 ± 1%, the capture rate (HuCCT1 (CCA cell line); [4]) was 5 ± 2% and the capture rate (HuCCT1 (CCA cell line); [5]) was 4 ± 2%. The capture rate (KKU100 (CCA cell line); [3]) was 42 ± 3%, the capture rate (KKU100 (CCA cell line); [4]) was 44 ± 2% and the capture rate (KKU100 (CCA cell line); [5]) was 41 ± 11%. It also gave a capture rate [1, 3] of 55 ± 7%, a capture rate [1, 4] of 47 ± 20% and a capture rate [1, 5] of 16±8%. The capture rate (HCT8 (colorectal cancer); [3]) was 16 ± 3%, the capture rate (HCT8 (colorectal cancer); [4]) was 13 ± 0% and the capture rate (HCT8 (colorectal cancer); [5]) was 9 ± 2%. It also gave a capture rate (HepG2 (liver cancer); [3]) of 14 ± 1%, a capture rate (HepG2 (liver cancer); [4]) of 11 ± 4% and a capture rate (HepG2 (liver cancer); [5]) of 9 ± 6%. It also gave a capture rate (SNU478 (CCA cell line); [3]) of 20 ± 5%, a capture rate (SNU478 (CCA cell line); [4]) of 17 ± 7% and a capture rate (SNU478 (CCA cell line); [5]) of 16 ± 8%. It also gave a capture rate [2, 3] of 16 ± 6%, a capture rate [2, 4] of 11 ± 3% and a capture rate [2, 5] of 7 ± 3%.

Reference: patent publication US11549946B2, “Method for detecting cholangiocarcinoma cells” (National Tsing Hua University, priority 2019, dated 2023)
